In US8633225B2, “Piperidinium compounds and cosmetic compositions containing them” (Beiersdorf AG, priority 2006, dated 2014):

Test: inhibiting or reducing perspiration (antihidrotic effect); statement only, no test described
Details: qualitative statement

In the case of CCC(C)C(C(=O)OC1CC[N+](C)(C)CC1)c1ccccc1.[Br-] (stereo not shown) [4-{[2-(2-butyl)-2-phenylacetyl)oxy]}-1,1-dimethyl-piperidinium bromide], the “efficacy in inhibiting perspiration” value is reported as “very good efficacy in inhibiting perspiration”.
